Results taken from publication PMC3701698, “Pathway-based Screening Strategy for Multitarget Inhibitors of Diverse Proteins in Metabolic Pathways” (PLoS Computational Biology, 2013).
Where two headings read alike, the source gives them in different places.

Assays:
[1] = target: T1, 3-dehydroquinate synthase (Helicobacter pylori, UniProt P56081); experiment: 3-dehydroquinate synthase inhibition assay (NADH quantification); type: biochemical; conditions: for inhibition of 3-dehydroquinate synthase: 1 mM DAHP, 0.5 mM NAD+
T1 sequence (P56081 1-343): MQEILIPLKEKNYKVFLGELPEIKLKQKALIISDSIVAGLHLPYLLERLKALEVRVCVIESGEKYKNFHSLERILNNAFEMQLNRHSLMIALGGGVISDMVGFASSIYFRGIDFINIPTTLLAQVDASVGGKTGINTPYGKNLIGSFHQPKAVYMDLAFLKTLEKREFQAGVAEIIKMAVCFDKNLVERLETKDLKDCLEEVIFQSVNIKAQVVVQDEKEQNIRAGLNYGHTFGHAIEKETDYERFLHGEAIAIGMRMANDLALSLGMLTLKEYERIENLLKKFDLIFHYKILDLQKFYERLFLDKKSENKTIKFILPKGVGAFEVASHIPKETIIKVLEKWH
Method: (§1) We performed ADP assay providing a direct method to analyze SDH-SK dual enzyme activity. The assay was initiated by addition of the 3-dehydroshikimate (2 mM) after incubating in a reaction mixture containing 2.5 mM ATP, 0.5 mM NADPH, 100 nM SDH, 100 nM SK enzyme, 50 mM KCl, 5 mM MgCl2 and different inhibitors. The reaction was carried out at 25°C in a mixture of 100 mM Tris-HCl buffer, pH 7.5 and terminated at 100°C for 5 mins in the reaction time of initial rate. The amount of ADP was measured by using ADP Colorimetric Assay Kit II (BioVision) according to the manufacturer's instruction. We also performed 3-dehydroquinate synthase inhibition assay. The reaction was comprised of 3-deoxy-D-arabinoheptulosonate 7-phosphate (1 mM) and NAD+ (0.5 mM). The amount of NADH was measured by using NAD+/NADH Quantification Kit (BioVision). All assays were conducted in a 96-well microplate and analyzed with a spectrophotometer (FLUOstar OPTIMA, BMG LABTECH). The dose-response curve was fitted using the non-linear regression function of GraphPad Prism. The IC90 values were computed from the IC50 and Hill slop.

[2] = test system: dual enzyme (SDH and SK); experiment: SDH-SK dual enzyme activity ADP assay; type: biochemical, Helicobacter pylori; conditions: for dual enzyme dose-response curve compared with SDH and SK curves: 2 mM 3-dehydroshikimate, 100 nM SDH, 100 nM SK; for dual enzyme (SDH and SK) activity curve: at inhibitor concentrations greater than the IC90 value
Method: as §1

[3] = target: shikimate kinase (SK) (Helicobacter pylori, UniProt P56073); experiment: Single enzyme inhibition assay, SK activity (ADP release coupled to NADH oxidation); type: biochemical; conditions: for IC50: 1.6 mM shikimate, 2 mM ATP, 25°C, pH 8.0; for inhibition at 100 µM: Table S4, read-out: SK IC50 (μM), dash = inhibition percentage
Chain of shikimate kinase (SK) (P56073 whole entry): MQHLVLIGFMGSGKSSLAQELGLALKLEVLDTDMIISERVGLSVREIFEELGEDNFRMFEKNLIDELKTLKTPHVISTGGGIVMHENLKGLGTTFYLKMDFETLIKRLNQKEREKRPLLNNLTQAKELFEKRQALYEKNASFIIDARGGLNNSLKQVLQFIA
Method: (§2) The SK activity was measured by coupling the release of ADP from the SK-catalyzed reaction to the oxidation of NADH using pyruvate kinase (EC 2.7.1.40) and lactate dehydrogenase (EC 1.1.1.27) as coupling enzymes. SDH activity was determined by monitoring the formation of NADPH. The initial rate of the reaction was measured by the increase in absorbance at A340 (ε = 6,200 M^−1 cm^−1) in the present of shikimate. The assay was performed at 25°C in a mixture of 100 mM Tris-HCl buffer, pH 8.0.
(§3) Both SK and SDH were used in a final enzyme concentration of 100 nM. For determination of IC50 for each inhibitor, the assay was initiated by the addition of shikimate (1.6 mM) after incubation in a buffer containing cofactor (2 mM ATP for SK or 2 mM NADP for SDH), enzyme, and inhibitor (dissolved in 5% dimethyl sulfoxide). All assays were conducted in a 96-well microplate and analyzed with a spectrophotometer (FLUOstar OPTIMA, BMG LABTECH). A dose-response curve was fitted using the non-linear regression function of GraphPad Prism®.

[4] = target: T2, shikimate dehydrogenase (SDH) (Helicobacter pylori, UniProt P56119); experiment: Single enzyme inhibition assay, SDH activity (formation of NADPH, A340); type: biochemical; conditions: for IC50: 1.6 mM shikimate, 2 mM NADP, 25°C, pH 8.0
T2 sequence (P56119 1-263): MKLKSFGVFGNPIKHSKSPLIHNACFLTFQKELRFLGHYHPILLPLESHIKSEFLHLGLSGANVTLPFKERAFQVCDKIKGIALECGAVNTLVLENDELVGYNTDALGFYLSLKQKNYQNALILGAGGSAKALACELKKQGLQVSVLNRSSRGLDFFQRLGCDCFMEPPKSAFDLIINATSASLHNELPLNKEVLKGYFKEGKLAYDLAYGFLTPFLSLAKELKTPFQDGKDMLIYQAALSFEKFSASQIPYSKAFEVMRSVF
Method: as §2, §3

[5] = 100 nM enzyme, read-out: SDH IC50
[6] = 100 nM enzyme, read-out: SK IC50

Row | SMILES | dual enzyme dose-response curve compared with SDH and SK curves [2] | dual enzyme (SDH and SK) activity curve [2] | inhibition of 3-dehydroquinate synthase [1] | IC50 [4, 5] | inhibition at 100 µM [3] | IC50 [3, 6] | other results
1 | O=C(Nc1ccc2c(O)cc(S(=O)(=O)O)cc2c1)Nc1ccc2c(O)cc(S(=O)(=O)O)cc2c1 [NSC45174] | median effect | approximately 0 |  |  |  |  | IC50 [1]: 7.1 µM; IC50 ([3]; SK IC50, 100 nM enzyme): < 10 µM; IC50 ([4]; SDH IC50, 100 nM enzyme): 3.6 µM
2 | Nc1ccc2c(O)c(N=Nc3ccc4c(O)cc(S(=O)(=O)O)cc4c3)c(S(=O)(=O)O)cc2c1 [NSC162535, reference compound] | nearly identical profiles |  |  |  |  |  | 
3 | O=C(NNC(=O)C1c2ccccc2Oc2ccccc21)c1cccc([N+](=O)[O-])c1 [RH00037] |  |  | no inhibitions | 24.8 µM |  |  | 
4 | O=C(Nc1ccc2ncccc2c1)Nc1ccc2ncccc2c1 [NSC71881] |  |  |  |  | < 50% |  | inhibition at 100 µM ([4]; at 100 μM, Table S4, read-out: SDH IC50 (μM), dash = inhibition percentage): < 50%
5 | Cc1cc(/N=N/c2ccc(/N=N/c3ccc(/N=N/c4ccc(O)c(C(=O)O)c4)cc3)c(S(=O)(=O)O)c2C)c(N)cc1N [NSC45611] | median effect | approximately 0 | no inhibitions | 1.4 µM |  | 4.8 µM | 
6 | Cc1ccc(S(=O)(=O)CCSc2n[nH]c(=O)n2-c2ccc(OCc3ccccc3)cc2)cc1 [HTS02873] |  |  |  | 4.9 µM | < 50% | > 100 µM | inhibitory effect for SK ([3]; at 100 µM): no inhibitory effect
